PubChem BioAssay (NCI)
Where “and” joins values, the source holds several entries; their conditions need not be identical. Equal entries are not always repeated.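 Interpolation was linear, between the two tested concentrations surrounding the appropriate level; five concentrations were tested over 48 hours in 96-well plates. At the GI50, growth is halved. TGI denotes the concentration required for complete inhibition of growth.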

Experiments:
Assay in all cases: NCI anticancer screen, dose series, 48 h
[1] = test system: A549 NSCLC
[2] = test system: OVCAR-3 ovarian
[3] = test system: NCI-H460 lung
[4] = test system: OVCAR-8 ovarian
[5] = test system: SK-MEL-28 melanoma
[6] = test system: CCRF-CEM leukemia
[7] = test system: 786-0 renal
[8] = test system: IGROV1 ovarian
[9] = test system: HL-60(TB) leukemia
[10] = test system: SR leukemia

SMILES	TGI [1]	TGI [2]	TGI [3]	TGI [4]	TGI [5]	TGI [6]	TGI [7]	TGI [8]	GI50 [1] [µM]	GI50 [2] [µM]	GI50 [3] [µM]	GI50 [4] [µM]	GI50 [5] [µM]	GI50 [9] [µM]	TGI [9]	GI50 [6]	GI50 [7] [µM]	GI50 [8] [µM]	GI50 [10] [µM]	TGI [10] [µM]
O=S(O)CCCCSSCCCCS(=O)(O)=S	> 100 µM	> 100 µM	> 100 µM	> 100 µM	> 100 µM	> 100 µM	> 100 µM	> 100 µM												
COc1ccc(-c2ccc(=O)oc2-c2cc(OC)c(OC)c(OC)c2)cc1O	> 100 µM	0.16 µM		> 100 µM	> 100 µM		13.9 µM		0.0595	< 0.01	0.0244	0.0498	1.64	0.0208	0.0705 µM	0.0219 µM	< 0.0228	< 0.01		
CCC(=O)[O-].CCC(=O)[O-].N.N.N.N.[Co+3].[O-][Cl+3]([O-])([O-])[O-]	> 100 µM	> 100 µM	> 100 µM	> 100 µM	> 100 µM	> 100 µM	> 100 µM	> 100 µM	> 100	> 100	> 100	> 100	> 100	> 100	> 100 µM	> 100 µM	> 100	> 100		
CC(C)c1cccc2sc(NC(=O)C(=O)CC(=O)c3ccc(F)cc3)nc12	> 100 µM	> 100 µM	> 100 µM	> 100 µM	> 100 µM	> 100 µM	> 100 µM	> 100 µM							> 100 µM					
O=c1cc(-c2ccccc2)oc2cc(OCc3cn(Cc4ccc(F)cc4)nn3)cc(O)c12	> 100 µM			> 100 µM		> 100 µM	42.1 µM	> 100 µM	19.6			3.76		> 100	> 100 µM	> 100 µM	9.26	17.6		
C/C(CC(=O)Nc1ccc(C)cc1)=N\NC(N)=S	> 100 µM	> 100 µM	> 100 µM	> 100 µM	> 100 µM	> 100 µM	> 100 µM	> 100 µM							> 100 µM					
CC1=C(CC/C(C)=C/CCC2(C)CCC([C@H](C)C(=O)O)OO2)C(C)(C)CCC1 (stereo partly drawn) (tested in a mixture with another compound)	> 100 µM	> 100 µM	> 100 µM	> 100 µM	> 100 µM		> 100 µM								> 100 µM					
CC(=O)c1ccc(NCn2nc(-c3ccccc3O)oc2=S)cc1	> 100 µM	> 100 µM	> 100 µM	> 100 µM	> 100 µM		> 100 µM	> 100 µM	37.8	> 100	39.5	> 100	> 100	> 100	> 100 µM		74.1	> 100		
NC(N)=NS(=O)(=O)c1ccc(NC(=O)c2ccc(Cl)c3c(Nc4ccc(S(=O)(=O)N=C(N)N)cc4)c4ccccc4nc23)cc1	> 100 µM	> 100 µM	> 100 µM	> 100 µM	> 100 µM	> 100 µM	> 100 µM	> 100 µM							> 100 µM					
CCOc1ccc2c(-c3ccnc(Nc4cccc(C(F)(F)F)c4)n3)cnn2n1	9.19 µM	> 25 µM	> 25 µM	11.7 µM	> 25 µM	> 25 µM	> 19.6 µM	> 25 µM	4.4	8.57	9.05	5.44	> 25	> 25	> 25 µM	> 25 µM	7.3	10.9		
c1ccc(CN2CCC3(CC2)ONC2=NCCN23)cc1	> 100 µM	87.3 µM	> 100 µM	> 100 µM	> 100 µM	> 100 µM	> 100 µM	> 100 µM	88.4	19.5	86.5	60.9	> 100	35.4	> 100 µM	31 µM	42.6	35.8		
CC(=O)OC1C(O)COC(Oc2c(C)c3c4c(c2O)[C@@H](C)CC[C@@H]4[C@@H](C)C[C@H]3C=C(C)C)C1O (stereo partly drawn)	40.3 µM	28.2 µM	47.1 µM	49.8 µM	48.2 µM	27.4 µM	> 100 µM	> 100 µM	16	13.5	16.3	23	22.3			7.42 µM	27	28.9	3.87	19.1
Nc1nc(N)c2ncn(Cc3c(Cl)cccc3Cl)c2n1	> 100 µM	> 100 µM		> 100 µM	> 100 µM	> 100 µM	> 100 µM	> 100 µM												
COC(=O)c1c(C(=O)OC)c(C(=O)OC)c(C(=O)OC)c1C(=O)OC	> 100 µM	> 100 µM	> 100 µM	> 100 µM	> 100 µM	> 100 µM	> 100 µM	> 100 µM							> 100 µM					
[O-]c1c(-c2ccccc2)[se]c(-c2ccccc2)[n+]1-c1ccccc1	35.9 µM	21.9 µM	38.7 µM	13.7 µM	22.7 µM	31.8 µM	22.5 µM	13.6 µM							5.51 µM					
Cc1occc1C(=S)Nc1ccc(Cl)c(C(=O)OCC2CC2)c1	> 100 µM	> 100 µM	> 100 µM	> 100 µM	> 100 µM	91.5 µM	> 100 µM	> 100 µM							75.3 µM					
Cc1ccc(S(=O)(=O)NC(C)C(=O)O)cc1 (stereo not drawn)	> 100 µM	> 100 µM	> 100 µM	> 100 µM	> 100 µM	> 100 µM	> 100 µM	> 100 µM							> 100 µM	47.2 µM and > 100 µM				
COc1cc2c(C#N)n3c(c2cc1OC)C(=O)C(c1ccccc1)Oc1ccccc1-3 (stereo not drawn)	> 100 µM	> 100 µM		> 100 µM	> 100 µM	8.51 µM	39.1 µM	> 100 µM	2.87	4.48		2.76	> 100			2.72 µM	5.7	7.41	2.58	> 100
COc1cc2c3c(n(CCCn4cccn4)c(=O)c2cc1OC)-c1cc2c(cc1C3=O)OCO2	> 100 µM	> 100 µM	13.3 µM	54.7 µM	> 100 µM	2.34 µM	2.76 µM	29 µM	2.87	33.7	0.52	2.83	5.35			0.341 µM	0.429	1.8	0.0465	1.57
NC(CCc1nc(-c2ccccc2)cs1)C(=O)O (stereo not drawn)	> 100 µM	> 100 µM	> 100 µM	> 100 µM	> 100 µM	> 100 µM	> 100 µM	> 100 µM							> 100 µM					
NCC(=O)OCN1C(=O)C2C3C=CC(C2C1=O)C1C2C(=O)N(COC(=O)CN)C(=O)C2C31 (stereo not drawn)	63.7 µM and 60.6 µM	82.1 µM and 93.4 µM	35.8 µM and 34.3 µM	47.4 µM and 39 µM	35.3 µM and 40.8 µM	52.6 µM and 49.8 µM	40.7 µM and 36.8 µM	> 100 µM							28.5 µM and 37.4 µM					
CC[O+]=c1cccc2ssnc1-2	> 100 µM	99.8 µM	> 100 µM	> 100 µM	> 100 µM	> 100 µM	> 100 µM	> 100 µM							> 100 µM					
COC(=O)/C1=C/C2CC(/C=C(/c3ccccc3)C(=O)O1)C2	> 100 µM	> 100 µM	> 100 µM	80.6 µM	66.4 µM	70.5 µM	89.1 µM	> 100 µM							60.6 µM					
COc1cc2c(cc1OCCN1C(=O)c3cccc4cccc(c34)C1=O)N=C[C@@H]1CCCN1C2=O	17.1 µM and 53.1 µM	13.1 µM and 28.2 µM	13.9 µM and 29.9 µM	17.1 µM and 36.7 µM	16.3 µM and 49.3 µM	23.1 µM and 19.5 µM	14.7 µM and 33.9 µM	11.6 µM and 25.6 µM	17.7	14.9	15.5	16.6	19.7			1.44 µM	16.5	12.4		> 100
O=C1c2ccccc2C(=O)c2c1c(NCCNCCO)c1cc[nH]c1c2NCCNCCO	27.2 µM	> 26.1 µM	> 60.1 µM	40.5 µM	20.5 µM		> 36.7 µM	> 100 µM	5.46	3.57	7.78	2.42	3.27	2.9	> 21 µM	1.04 µM	3.87	9.23		
CC(=O)[CH-]C(=O)c1ccccc1.CC(=O)[CH-]C(=O)c1ccccc1.CC(C)CCCC(C)[C@H]1CCC2[C@@H]3CCC4C[C@@H]([O-])CC[C@]4(C)C3CC[C@@]21C.CC(C)CCCC(C)[C@H]1CCC2[C@@H]3CCC4C[C@@H]([O-])CC[C@]4(C)C3CC[C@@]21C.Cl.[Ti+4] (stereo partly drawn)	> 25 µM	> 25 µM	> 25 µM	> 25 µM	> 25 µM	> 25 µM	> 25 µM	> 25 µM	> 25	> 25	> 25	> 25	> 25	8.29	24.9 µM	> 25 µM	> 25	> 25		
